Results taken from publication PMC6269910 (Molecules, 2013).
Where “and” joins values, the source holds several entries; their conditions need not be identical. Identical values can stand only once.

Experiments:
[1] = system: carrageenan-induced hind paw edema; assay: Carrageenan-induced hind paw edema model; type: in vivo, mice
Experimental: Locally bred balb/c mice of both sexes (30-35 g) were purchased from the animal breeding laboratories of Inonu University ([…], Turkey). The animals were fed a standard pellet diet and water ad libitum in a temperature-controlled room. On the day before the treatments, food was withdrawn, but the animals were allowed free access of water. The allocation of animals to different groups was randomized, and the experiments were carried out under blind conditions. Mice used in the present study were cared for in accordance with the directory of the Inonu University Animal Care Unit, which applies the guidelines of the National Institutes of Health on laboratory animal welfare. Procedures involving animals and their care were conducted in conformity with international laws and policies and animal studies accepted by Inonu University Ethical Council (2011/A17). Test samples, suspended in a mixture of distilled water and 0.5% sodium carboxymethyl cellulose (CMC), were given orally to the animals. The control group animals received the same experimental handling as those of the test groups, except that the drug treatment was replaced with appropriate volumes of the dosing vehicle. […] For the preliminary activity screening, each test group was composed of four mice. […] Because of the daily changing circumstance, we used another control group for each experiment. For the determination of the effects on carrageenan-induced paw oedema, the modified method of Kasahara et al. was employed. One hour after the oral administration of either test sample or dosing vehicle, each mouse was injected with a freshly prepared (0.5 mg/25 μL) suspension of carrageenan (Sigma, St. Louis, MO, USA) in physiological saline (154 mM NaCl). The subplantar tissue of the right hind paw was the injection site for all mice. The contralateral paw (left hind paw) was injected with 25 μL saline solution as the internal control. […] The difference in footpad thickness between the right and left foot indicated the degree of inflammation for each mouse. The change in paw volume, either increase or decrease, was calculated and compared with the control group (dosing vehicle) and analyzed using statistical methods.

[2] = system: acetic acid-induced abdominal constriction; assay: Acetic acid-induced writhing (Koster) test; type: in vivo, mice; settings: 100 mg/kg oral
Experimental: Test samples, suspended in a mixture of distilled water and 0.5% sodium carboxymethyl cellulose (CMC), were given orally to the animals. The control group animals received the same experimental handling as those of the test groups, except that the drug treatment was replaced with appropriate volumes of the dosing vehicle. […] One hour after oral administration of test sample, each mouse was injected intraperitoneally with 3% (w/v) acetic acid solution (0.1 mL/10 g, bw). Starting 5 min after the acetic acid injection, the number of muscular contractions on mice were counted for a period of 10 min. A significant reduction in the number of writhings by any treatment as compared to the number of writhings in control animals was considered a positive analgesic response. The analgesic activity was expressed as a percentage change from writhing controls. ASA was used as a reference compound and administered at 200 mg/kg.

[3] = system: stomach; assay: Gastric-ulcerogenic effect (ulcer score); type: in vivo, mice; settings: 200 mg/kg p.o.; animals with lesions/animals
[4] = system: lipid peroxidation in stomach; assay: Lipid peroxidation in stomach (TBARS); type: in vivo, mice; settings: 100 mg/kg, 8 h after analgesic test
[5] = target: T1, HCV NS5B RNA dependent RNA polymerase (Hepatitis C virus genotype 1b, UniProt P26663); assay: NS5B inhibition assay (primer dependent elongation, poly rA-U12); type: biochemical
T1 construct: HCV NS5B RNA dependent RNA polymerase activity
Experimental: The compounds 1a–e and 2a–e were reconstituted in DMSO as 50 mM stocks, and serially diluted in DMSO to obtain working stocks. Wedelolactone, a known inhibitor of HCV NS5B activity, was employed as a reference compound. Preliminary screening was carried out at 100 μM to identify a wider range of compounds.
All synthesized compounds were evaluated for their effect on HCV NS5B RNA dependent RNA polymerase activity in primer dependent elongation assays as previously described. Activity of NS5B in the absence of the inhibitor but containing an equivalent amount of DMSO (control reaction) was set at 100% and that in the presence of the inhibitor was quantified relative to this control.

T1 sequence (P26663 2420-3010): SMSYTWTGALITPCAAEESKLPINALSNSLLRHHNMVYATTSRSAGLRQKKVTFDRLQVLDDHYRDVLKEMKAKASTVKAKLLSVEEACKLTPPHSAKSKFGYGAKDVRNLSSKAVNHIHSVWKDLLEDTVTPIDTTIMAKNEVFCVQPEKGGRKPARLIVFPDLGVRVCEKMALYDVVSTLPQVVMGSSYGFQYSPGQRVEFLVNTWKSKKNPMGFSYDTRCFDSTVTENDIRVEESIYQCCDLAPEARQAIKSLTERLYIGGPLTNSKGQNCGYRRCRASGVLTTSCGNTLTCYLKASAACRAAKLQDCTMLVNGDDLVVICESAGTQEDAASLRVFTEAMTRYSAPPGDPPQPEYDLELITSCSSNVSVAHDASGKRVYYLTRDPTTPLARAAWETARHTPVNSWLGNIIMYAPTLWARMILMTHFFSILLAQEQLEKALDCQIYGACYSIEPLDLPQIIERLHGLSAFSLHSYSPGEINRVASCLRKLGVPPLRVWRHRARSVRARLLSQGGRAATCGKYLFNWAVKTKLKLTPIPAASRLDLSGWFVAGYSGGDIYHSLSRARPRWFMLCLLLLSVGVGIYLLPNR

Which results are given for `Cc1ccc(-c2cc(C(F)(F)F)nn2-c2ccc(S(=O)(=O)NC(=S)Nc3ccc([N+](=O)[O-])cc3)cc2)cc1` [Compound 1d]?
Swelling in thickness ± SEM ([1]; 50 mg/kg per os, 90 min): 70.0 ± 4.7 × 10^−2 mm; percent inhibitory activity ([1]; 50 mg/kg per os, 90 min): 2.7%; Swelling in thickness ± SEM ([1]; 50 mg/kg per os, 180 min): 77.0 ± 2.0 × 10^−2 mm; percent inhibitory activity ([1]; 50 mg/kg per os, 180 min): 16.3%; Swelling in thickness ± SEM ([1]; 50 mg/kg per os, 270 min): 112.0 ± 7.3 × 10^−2 mm; percent inhibitory activity ([1]; 50 mg/kg per os, 270 min): 7.4%; Swelling in thickness ± SEM ([1]; 50 mg/kg per os, 360 min): 125.0 ± 5.9 × 10^−2 mm; percent inhibitory activity ([1]; 50 mg/kg per os, 360 min): 3.1%; Swelling in thickness ± SEM ([1]; 100 mg/kg per os, 90 min): 95.9 ± 10.2 × 10^−2 mm; Swelling in thickness ± SEM ([1]; 100 mg/kg per os, 270 min): 110.7 ± 11.0 × 10^−2 mm; percent inhibitory activity ([1]; 100 mg/kg per os, 270 min): 8.5%; Swelling in thickness ± SEM ([1]; 100 mg/kg per os, 360 min): 88.7 ± 9.3 × 10^−2 mm; percent inhibitory activity ([1]; 100 mg/kg per os, 360 min): 31.2%; Swelling in thickness ± SEM ([1]; 200 mg/kg per os, 90 min): 45.9 ± 10.9 × 10^−2 mm; percent inhibitory activity ([1]; 200 mg/kg per os, 90 min): 36.2%; Swelling in thickness ± SEM ([1]; 200 mg/kg per os, 180 min): 65.3 ± 6.4 × 10^−2 mm; percent inhibitory activity ([1]; 200 mg/kg per os, 180 min): 29.0%; Swelling in thickness ± SEM ([1]; 200 mg/kg per os, 270 min): 98.2 ± 9.8 × 10^−2 mm; percent inhibitory activity ([1]; 200 mg/kg per os, 270 min): 19.0%; Swelling in thickness ± SEM ([1]; 200 mg/kg per os, 360 min): 91.0 ± 3.3 × 10^−2 mm; percent inhibitory activity ([1]; 200 mg/kg per os, 360 min): 29.5%; anti-inflammatory activity (in words) ([1]; all doses, all measurement intervals): moderate-to-good; Writhing test (% inh.) [2]: 19.5%; Writhing test (Mean ± SEM) ([2]; writhings counted 10 min from 5 min after acetic acid): 14.0 ± 3.0; Ulcer score [3]: 0/5; Lipid peroxidation [4]: 429.2 ± 23.2 nmol TBARS/g wet weight; IC50 ([5]; dose-response, 8–12 concentrations): 46 µM and 45.5 µM; inhibition at 100 µM ([5]; read-out: Anti-NS5B Activity (% Inh., 100 µM)): 68%; melting point: 245 to 248 °C
